Test results taken from patent US20240181022A1, “AMURINS LYSINS, AND LYSIN-ANTIMICROBIAL PEPTIDE (AMP) CONSTRUCTS ACTIVE AGAINST GRAM-NEGATIVE BACTERIA” (priority 2021, published 2024).
Converted amounts (≈) assume the structure as drawn. “And” between values parts separate entries of the source, which are not always exact repeats. Identical values can stand only once. Like-named read-outs stand apart in the source and are kept apart here. Where a SMILES comes first, the peptide text is derived from it. Where no end group is shown, it is not given here. [ ]: non-standard residue; d: D form.

Experiments:
[1] = test system: M. kansasii; assay: MIC against M. kansasii; type: cell-based, Mycobacterium kansasii; conditions: M. kansasi (ATCC 12478); CAAT media
[2] = test system: M. fortuitum; assay: MIC against M. fortuitum; type: cell-based, Mycobacterium fortuitum; conditions: M. fortuitum (ATCC 6841); CAAT media
[3] = test system: Mycobacterium species; type: cell-based
[4] = test system: M. intracellulare; assay: MIC against M. intracellulare; type: cell-based, Mycobacterium intracellulare; conditions: M. intracellulare (ATCC 13950); CAAT media
[5] = test system: M. scrofulaceum; assay: MIC against M. scrofulaceum; type: cell-based, Mycobacterium scrofulaceum; conditions: M. scrofulaceum (ATCC 19981); CAAT media
[6] = test system: M. smegmatis; assay: MIC against M. smegmatis; type: cell-based, Mycobacterium smegmatis; conditions: M. smegmatis (MC 155); CAAT media
[7] = test system: M. abscessus; assay: MIC against MDR M. abscessus isolates; type: cell-based, Mycobacterium abscessus; conditions: 7 days; for MIC: AST media (CAAT); for activity (MIC) against M. abscessus: 5 clinical MDR strains and 1 ATCC strain, CAAT
[8] = test system: M. avium; assay: MIC against M. avium; type: cell-based, Mycobacterium avium; conditions: M. avium (ATCC 700898); CAAT media
[9] = test system: M. tuberculosis; type: cell-based, Mycobacterium tuberculosis
[10] = test system: K. pneumoniae; assay: Checkerboard synergy assay (FICI) against K. pneumoniae; type: cell-based, Klebsiella pneumoniae; conditions: K. pneumoniae HM-44
Method: (§1) Any known method to assess MIC may be used.
(§2) Checkerboards are constructed by first preparing columns of e.g., a 96-well polypropylene microtiter plate, wherein each well has the same amount of antibiotic diluted 2-fold along the horizontal axis. […] Bacteria are added to the drug combinations at concentrations of 1×10^5 […] in CAA, for example, with or without human serum or pulmonary surfactant. […] Summation fractional inhibitory concentrations (ΣFICs) are calculated for each drug and the minimum ΣFIC value (ΣFICmin) is used to determine the effect of the Chp peptide/antibiotic combination.
(§3) GN370 was further tested in combination with up to seven additional antibiotics (in addition to meropenem) against a variety of bacterial strains, including P. aeruginosa, A. baumannii, E. coli, E. cloacae, and K. pneumoniae. GN370 and the subject antibiotics were tested in a checkerboard assay format, and FICI values were determined, wherein ≤0.5 indicates synergy, >0.5-≤1 indicates additive; and >1 indicates indifferent.

[11] = test system: E. cloacae; assay: Checkerboard synergy assay (FICI) against E. cloacae; type: cell-based, Enterobacter cloacae; conditions: E. cloacae ATCC 13047
Method: as §1, §2, §3

[12] = test system: P. aeruginosa; assay: Checkerboard synergy assay (FICI) with antibiotics against P. aeruginosa; type: cell-based, Pseudomonas aeruginosa; conditions: for FICI of the antibiotic with GN370: P. aeruginosa ATCC 27853, checkerboard; for Antibiotic MIC (single agent): P. aeruginosa strain AR-769; for Antibiotic FIC / Antibiotic MIC (combo): P. aeruginosa strain AR-769, in combination with GN370; for Antibiotic MIC (combo): in µg/mL
Method: as §1, §2
The synergy of GN370 with meropenem was evaluated against 3 different strains of P. aeruginosa and three different strains of B. cenocepacia.
as §3

[13] = test system: A. baumannii; assay: Checkerboard synergy assay (FICI) against A. baumannii; type: cell-based, Acinetobacter baumannii; conditions: A. baumannii ATCC BAA-747
Method: as §1, §2, §3

[14] = test system: E. coli; assay: Checkerboard synergy assay (FICI) against E. coli; type: cell-based, Escherichia coli; conditions: E. coli ATCC 25922
Source text: In some embodiments, the Chp peptides disclosed herein or active fragments thereof reduce the minimum inhibitory concentration (MIC) of an antibiotic in the presence and/or absence of human serum, pulmonary surfactant, and/or sputum, including human sputum and human sputum from a cystic fibrosis patient. Any known method to assess MIC may be used. In some embodiments, a checkerboard assay is used to determine the effect of a Chp peptide or active fragment thereof on antibiotic concentration. The checkerboard assay is based on a modification of the CLSI method for MIC determination by broth microdilution (See Clinical and Laboratory Standards Institute (CLSI), CLSI. 2015. Methods for Dilution Antimicrobial Susceptibility Tests for Bacteria That Grow Aerobically; Approved Standard-10th Edition. Clinical and Laboratory Standards Institute, Wayne, PA, which is herein incorporated by reference in its entirety and Ceri et al. 1999. J. Clin. Microbiol. 37: 1771-1776, which is also herein incorporated by reference in its entirety).
Checkerboards are constructed by first preparing columns of e.g., a 96-well polypropylene microtiter plate, wherein each well has the same amount of antibiotic diluted 2-fold along the horizontal axis. […] The Chp peptide or active fragment thereof and antibiotic dilutions are then combined, so that each column has a constant amount of antibiotic and doubling dilutions of Chp peptide, while each row has a constant amount of Chp peptide and doubling dilutions of antibiotic. Each well thus has a unique combination of Chp peptide and antibiotic. Bacteria are added to the drug combinations at concentrations of 1×10^5 GFU/ml in CAA, for example, with or without human serum or pulmonary surfactant. […] Summation fractional inhibitory concentrations (ΣFICs) are calculated for each drug and the minimum ΣFIC value (ΣFICmin) is used to determine the effect of the Chp peptide/antibiotic combination.
as §3

[15] = test system: P. aeruginosa; conditions: […], before serial passage
[16] = M. abscessus strain BK51403 (ATCC 19977)
[17] = M. tuberculosis (ATCC 35817), (ADC, T) media
[18] = M. tuberculosis strain TN8109_LB (MDR), 7H9 broth, 20 days
[19] = M. tuberculosis strain TN8562_M33 (susc), 7H9 broth, 20 days
[20] = M. tuberculosis strain TN10525_LL (MDR), 7H9 broth, 20 days
[21] = M. tuberculosis strain TN10571_KY (MDR), 7H9 broth, 20 days
[22] = M. tuberculosis strain TN12657_KQ15 (IS), 7H9 broth, 20 days
[23] = M. tuberculosis strain TN13923_HD17 (susc), 7H9 broth, 20 days
[24] = M. tuberculosis strain TN18349_W738 (susc), 7H9 broth, 20 days
[25] = M. tuberculosis strain TN34503_001 (susc), 7H9 broth, 20 days
[26] = 30 amurin peptides, seven species, CAAT media

| Molecule | MIC [1] [mg/L] | MIC [2] [mg/L] | MIC [4] [mg/L] | MIC [5] [mg/L] | MIC [6] [mg/L] | MIC ([7]; M. abscessus strain BK51402) [mg/L] | MIC [7, 16] [mg/L] | MIC ([7]; M. abscessus strain BK51408) [mg/L] | MIC ([7]; M. abscessus strain BK55096) [mg/L] | MIC ([7]; M. abscessus strain BK55691) [mg/L] | MIC ([7]; M. abscessus strain BK58156) [mg/L] | MIC [8] [Tg/mL] | MIC [9, 17] [mg/L] | MIC [9, 18] [mg/L] | MIC [9, 19] [mg/L] | MIC [9, 20] [mg/L] | MIC [9, 21] [mg/L] | FICI of the antibiotic with GN370 [10] | FICI of the antibiotic with GN370 [11] | FICI of the antibiotic with GN370 [13] | also measured |
| --- | --- | --- | --- | --- | --- | --- | --- | --- | --- | --- | --- | --- | --- | --- | --- | --- | --- | --- | --- | --- | --- |
| CC[C@H](C)[C@H](NC(=O)CNC(=O)CNC(=O)[C@H](CCCNC(=N)N)NC(=O)[C@H](CCSC)NC(=O)[C@@H](NC(=O)[C@H](CCCNC(=N)N)NC(=O)[C@H](CCCNC(=N)N)NC(=O)[C@H](CC(C)C)NC(=O)[C@H](CCCNC(=N)N)NC(=O)[C@H](CC(N)=O)NC(=O)[C@H](CCCNC(=N)N)NC(=O)[C@@H]1CCCN1C(=O)[C@H](Cc1c[nH]cn1)NC(=O)[C@H](CCSC)NC(=O)[C@H](CCCNC(=N)N)NC(=O)[C@H](CC(C)C)NC(=O)[C@H](C)NC(=O)[C@@H](NC(=O)[C@H](CCCNC(=N)N)NC(=O)[C@H](CO)NC(=O)[C@H](Cc1ccccc1)NC(=O)[C@H](CC(C)C)NC(=O)[C@H](CCCNC(=N)N)NC(=O)[C@H](CCCNC(=N)N)NC(=O)[C@H](CO)NC(=O)[C@H](CCCNC(=N)N)NC(=O)[C@H](CCCNC(=N)N)NC(=O)[C@H](CCCNC(=N)N)NC(=O)[C@@H]1CCCN1C(=O)[C@H](CC(C)C)NC(=O)[C@H](CCCNC(=N)N)NC(=O)[C@H](Cc1ccc(O)cc1)NC(=O)[C@H](CCCNC(=N)N)NC(=O)[C@H](CCCNC(=N)N)NC(=O)[C@H](CCCNC(=N)N)NC(=O)[C@H](C)NC(=O)[C@@H](N)CCSC)[C@@H](C)O)[C@@H](C)CC)C(=O)N[C@@H](CCCNC(=N)N)C(=O)N[C@@H](Cc1ccccc1)C(=O)O [AM18] (H-MARRRYRLPRRRSRRLFSRTALRMHPRNRLRRIMRGGIRF-OH) | 4 (≈ 0.772 µM) | 2 (≈ 0.386 µM) | 1 (≈ 0.193 µM) | 4 (≈ 0.772 µM) | 0.25 (≈ 0.0483 µM) | 2 (≈ 0.386 µM) | 1 (≈ 0.193 µM) | 4 (≈ 0.772 µM) | 4 (≈ 0.772 µM) | 2 (≈ 0.386 µM) | 16 (≈ 3.09 µM) | 2 | 4 (≈ 0.772 µM) | 1 (≈ 0.193 µM) | 2 (≈ 0.386 µM) | 1 (≈ 0.193 µM) | 2 (≈ 0.386 µM) |  |  |  | activity (MIC) against Mycobacterium species [3]: highest activity; MIC [9, 22]: 1 mg/L (≈ 0.193 µM); MIC [9, 23]: 1 mg/L (≈ 0.193 µM); MIC [9, 24]: 2 mg/L (≈ 0.386 µM); MIC [9, 25]: 0.5 mg/L (≈ 0.0965 µM) |
| C[C@H]1[C@H](NC(=O)/C(=N\OC(C)(C)C(=O)O)c2csc(N)n2)C(=O)N1S(=O)(=O)O [Aztreonam] |  |  |  |  |  |  |  |  |  |  |  |  |  |  |  |  |  | 0.375 | 0.25 | 0.313 | FICI of the antibiotic with GN370 [12]: 0.375 |
| Cc1nnc(SCC2=C(C(=O)O)N3C(=O)[C@@H](NC(=O)Cn4cnnn4)[C@H]3SC2)s1 [Cefazolin] |  |  |  |  |  |  |  |  |  |  |  |  |  |  |  |  |  | 0.375 |  | 0.5 |  |
| NC[C@H]1O[C@H](O[C@H]2[C@H](O)[C@@H](O[C@H]3O[C@H](CO)[C@@H](O)[C@H](N)[C@H]3O)[C@H](N)C[C@@H]2N)[C@H](N)C[C@@H]1O [tobramycin, reference compound] |  |  |  |  |  |  |  |  |  |  |  | 0.125 |  |  |  |  |  | 0.375 | 0.5 | 0.5 | FICI of the antibiotic with GN370 [12]: 0.5; Antibiotic MIC (single agent) [12]: 0.125 mg/L; Antibiotic FIC [12]: 0.125; Antibiotic MIC (combo) [12]: 0.016 and 0.015; FICI of the antibiotic with GN370 [14]: 0.25; MIC [15]: 0.002 mg/L (≈ 0.00428 µM) |
| AM9: Modified variant of Unp2, SEQ ID NO: 97 (M[dR][dR][dR][dR]LS[dR][dR]TS[dR][dR]FF[dR][dK]GL[dK]V[dR][dR][dR]NL[dR]A[dR]PM[dR]GGF[dR]I) | 2 | 4 | 2 | 4 | 1 | 1 | 4 | 4 | 2 | 2 | 2 | 1 | 4 | 16 | 16 | 64 | 8 |  |  |  | activity (MIC) against Mycobacterium species [3, 26]: highest activity; activity (MIC) against M. abscessus [7]: good activity; MIC [9, 22]: 16 mg/L; MIC [9, 23]: 16 mg/L; MIC [9, 24]: 8 mg/L; MIC [9, 25]: 16 mg/L |
| AM16: Modified variant of Chp4, SEQ ID NO: 91 (MA[dR][dR]Y[dR]LS[dR][dR][dR]S[dR][dR]LFS[dR]TAL[dR]MH[dR][dR]N[dR]L[dR][dR]IM[dR]GGI[dR]F) | 1 | 2 | 1 | 1 | 0.25 | 1 | 2 | 4 | 1 | 1 | 2 | 1 | 8 | 8 | 8 | 16 | 8 |  |  |  | activity (MIC) against Mycobacterium species [3, 26]: highest activity; activity (MIC) against M. abscessus [7]: good activity; MIC [9, 22]: 8 mg/L; MIC [9, 23]: 8 mg/L; MIC [9, 24]: 4 mg/L; MIC [9, 25]: 16 mg/L |
| Colistin |  |  |  |  |  |  |  |  |  |  |  |  |  |  |  |  |  | 0.187 | 0.25 | 0.375 | FICI of the antibiotic with GN370 [12]: 0.499; Antibiotic MIC (single agent) [12]: 0.063 mg/L; Antibiotic FIC [12]: 0.125; Antibiotic MIC (combo) [12]: 0.008; FICI of the antibiotic with GN370 [14]: 0.375 |
| Gentamicin |  |  |  |  |  |  |  |  |  |  |  |  |  |  |  |  |  | 0.375 | 0.25 | 0.563 | FICI of the antibiotic with GN370 [14]: 0.312 |
